Assay results reported in patent US20070093493A1, “Treatment of benign prostatic hypertrophy and lower urinary tract symptoms” (LILLY ICOS LLC, priority 2005, published 2007).

Experiments:
Format in all cases: in vivo, human
[1] = system: men suffering from moderate to severe LUTS secondary to BPH; assay: randomized, double-blind, placebo-controlled, parallel-group, dose-escalation study, once a day dosing: efficacy in LUTS secondary to BPH
Description: (§1) The efficacy and safety of Compound (I) administered once a day for LUTS secondary to BPH in male humans was tested. In particular, the efficacy and safety of Compound (I) dosed once a day was assessed in men suffering from moderate to severe LUTS secondary to BPH in a randomized, double-blind, placebo-controlled, parallel-group, dose-escalation study. Patients were treated with placebo for four weeks (single blind) to evaluate treatment compliance and establish baseline International Prostate Symptom Score (IPSS) and uroflowmetry values. After stratification by baseline IPSS (13-19, moderate LUTS; 20-35, severe LUTS), geographic region, and prior α-blocker therapy, 281 men were randomly assigned to two groups: (1) Compound (I) (5 mg for 6 weeks followed by dose escalation to 20 mg for 6 weeks) or (2) placebo (12 weeks). The primary efficacy end point was change in IPSS at 6 and 12 weeks. Secondary efficacy endpoints included changes in IPSS Quality of Life (QoL) index, BPH Impact Index (BII), uroflowmetry values, and a Global Assessment Question (LUTS GAQ) (Has the treatment you have been taking since your last visit improved your urinary symptoms?). Responses to Compound (I) 5 mg (6 weeks) or Compound (I) 5 mg followed by 20 mg (5/20 mg; 12 weeks total) were compared with placebo using ANCOVA (IPSS, BII, uroflowmetry values) and logistic linear regression (LUTS GAQ) models.

[2] = system: men with LUTS/BPH who were sexually active and also had erectile dysfunction; assay: same clinical study: erectile function (IIEF EF domain) in the subset with erectile dysfunction; details: for increase in International Index of Erectile Function (IIEF) EF domain score: LS Means, p<0.001
Description: The efficacy and safety of Compound (I) administered once a day for LUTS secondary to BPH in male humans was tested. In particular, the efficacy and safety of Compound (I) dosed once a day was assessed in men suffering from moderate to severe LUTS secondary to BPH in a randomized, double-blind, placebo-controlled, parallel-group, dose-escalation study.
as §1, with “Patients” for “The efficacy and safety of Compound (I) administered once a day for LUTS secondary to BPH in male humans was tested. In particular, the efficacy and safety of Compound (I) dosed once a day was assessed in men suffering from moderate to severe LUTS secondary to BPH in a randomized, double-blind, placebo-controlled, parallel-group, dose-escalation study. Patients”
At 6 weeks (5 mg) and 12 weeks (5/20 mg) Compound (I) improved change from baseline scores for IPSS, IPSS QoL, BII, and LUTS GAQ compared with placebo. Peak flow rate (Qmax) changes were similar in placebo and Compound (I) treatment groups.

[3] = system: men suffering from moderate to severe LUTS secondary to BPH; assay: same clinical study: safety / tolerability of once a day dosing; details: dosed once a day, 5 mg then 20 mg
Description: as §1

[4] = at 6 weeks (5 mg) and 12 weeks (5/20 mg), once a day, men

CN1CC(=O)N2[C@H](c3ccc4c(c3)OCO4)c3[nH]c4ccccc4c3C[C@@H]2C1=O [Compound (I), (6R,12aR)-2,3,6,7,12,12a-hexahydro-2-methyl-6-(3,4-methylenedioxyphenyl)pyrazino[2′,1′:6:1]pyrido[3,4-b]indole-1,4-dione]
LUTS GAQ compared with placebo [1, 4]: improved | change from baseline score for BII compared with placebo [1, 4]: improved | change from baseline score for IPSS QoL compared with placebo [1, 4]: improved | change from baseline score for IPSS compared with placebo [1, 4]: improved | efficacy in the treatment of LUTS secondary to BPH ([1]; dosed once a day, summary): statistically significant and clinically meaningful efficacy | Peak flow rate (Qmax) changes versus placebo ([1]; uroflowmetry, placebo and Compound (I) treatment groups): similar | increase in International Index of Erectile Function (IIEF) EF domain score ([2]; 5 mg once a day, 6 weeks, vs. 0.6 placebo): 6.0 | increase in International Index of Erectile Function (IIEF) EF domain score ([2]; 5/20 mg once a day, 12 weeks total, vs. 1.4 placebo): 7.7 | erectile function in men with both LUTS and MED ([2]; dosed once a day, summary): improved erectile function | tolerability [3]: well tolerated
